Reference: the NIST ThermoML archive (doi:10.1016/j.fluid.2018.09.024)
Numbers after ± are expanded uncertainties.

Assay: activity coefficient (dimensionless); of the first substance listed, at infinite dilution; xn = mol fraction of the nth substance listed
Conditions: 368.15 K; 101.33 kPa; Liquid; Chromatography; x1 = 0

`CCC(C)(C)OC` [2-methoxy-2-methylbutane] + CCCCCCCCCCCC[N+](C)(C)CCOc1ccccc1.N#C[N-]C#N and `COC(C)(C)C` [2-methoxy-2-methylpropane] + CCCCCCCCCCCC[N+](C)(C)CCOc1ccccc1.N#C[N-]C#N are within error of each other in activity coefficient: 2.75 ± 0.19 for the first, 2.48 ± 0.17 for the second.

Going from `CCC(C)(C)OC` [2-methoxy-2-methylbutane] + CCCCCCCCCCCC[N+](C)(C)CCOc1ccccc1.O=S(=O)([N-]S(=O)(=O)C(F)(F)F)C(F)(F)F to `COC(C)(C)C` [2-methoxy-2-methylpropane] + CCCCCCCCCCCC[N+](C)(C)CCOc1ccccc1.O=S(=O)([N-]S(=O)(=O)C(F)(F)F)C(F)(F)F, the activity coefficient falls from 1.56 ± 0.1 to 1.33 ± 0.09.

`CC(C)CO` [2-methyl-1-propanol] + CCCCCCCCCCCC[N+](C)(C)CCOc1ccccc1.N#C[N-]C#N and `CCC(C)O` (configuration not stated) [butan-2-ol] + CCCCCCCCCCCC[N+](C)(C)CCOc1ccccc1.N#C[N-]C#N are within error of each other in activity coefficient: 0.486 ± 0.037 for the first, 0.55 ± 0.04 for the second.

`CC(C)CO` [2-methyl-1-propanol] + CCCCCCCCCCCC[N+](C)(C)CCOc1ccccc1.O=S(=O)([N-]S(=O)(=O)C(F)(F)F)C(F)(F)F and `CCC(C)O` (configuration not stated) [butan-2-ol] + CCCCCCCCCCCC[N+](C)(C)CCOc1ccccc1.O=S(=O)([N-]S(=O)(=O)C(F)(F)F)C(F)(F)F are within error of each other in activity coefficient: 1.12 ± 0.07 for the first, 1.1 ± 0.07 for the second.

Going from `CC(C)(C)O` [2-methylpropan-2-ol] + CCCCCCCCCCCC[N+](C)(C)CCOc1ccccc1.N#C[N-]C#N to `CC(C)=O` [acetone] + CCCCCCCCCCCC[N+](C)(C)CCOc1ccccc1.N#C[N-]C#N, the activity coefficient rises from 0.598 ± 0.042 to 0.813 ± 0.053.

First: CC(C)(C)O [2-methylpropan-2-ol] + CCCCCCCCCCCC[N+](C)(C)CCOc1ccccc1.O=S(=O)([N-]S(=O)(=O)C(F)(F)F)C(F)(F)F
Second: CC(C)=O [acetone] + CCCCCCCCCCCC[N+](C)(C)CCOc1ccccc1.O=S(=O)([N-]S(=O)(=O)C(F)(F)F)C(F)(F)F
The activity coefficient of the first is higher: 0.952 ± 0.06 for the first, 0.445 ± 0.036 for the second.

First: CCC(C)CC [3-methylpentane] + CCCCCCCCCCCC[N+](C)(C)CCOc1ccccc1.N#C[N-]C#N
Second: CCCCO [butan-1-ol] + CCCCCCCCCCCC[N+](C)(C)CCOc1ccccc1.N#C[N-]C#N
The activity coefficient of the first is higher: 5.5 ± 0.37 for the first, 0.504 ± 0.038 for the second.

First: CCC(C)CC [3-methylpentane] + CCCCCCCCCCCC[N+](C)(C)CCOc1ccccc1.O=S(=O)([N-]S(=O)(=O)C(F)(F)F)C(F)(F)F
Second: CCCCO [butan-1-ol] + CCCCCCCCCCCC[N+](C)(C)CCOc1ccccc1.O=S(=O)([N-]S(=O)(=O)C(F)(F)F)C(F)(F)F
The activity coefficient of the first is higher: 3.07 ± 0.21 for the first, 1.15 ± 0.07 for the second.

Compared with `C=C(C)c1ccccc1` [(1-methylethenyl)benzene] + CCCCCCCCCCCC[N+](C)(C)CCOc1ccccc1.N#C[N-]C#N, `c1ccccc1` [benzene] + CCCCCCCCCCCC[N+](C)(C)CCOc1ccccc1.N#C[N-]C#N is lower in activity coefficient: 1.39 ± 0.09 for the first, 0.972 ± 0.061 for the second.

First: C=C(C)c1ccccc1 [(1-methylethenyl)benzene] + CCCCCCCCCCCC[N+](C)(C)CCOc1ccccc1.O=S(=O)([N-]S(=O)(=O)C(F)(F)F)C(F)(F)F
Second: c1ccccc1 [benzene] + CCCCCCCCCCCC[N+](C)(C)CCOc1ccccc1.O=S(=O)([N-]S(=O)(=O)C(F)(F)F)C(F)(F)F
The activity coefficient of the first is higher: 1.03 ± 0.06 for the first, 0.716 ± 0.048 for the second.

`CC#N` [acetonitrile] + CCCCCCCCCCCC[N+](C)(C)CCOc1ccccc1.N#C[N-]C#N and `CCCC=O` [butanal] + CCCCCCCCCCCC[N+](C)(C)CCOc1ccccc1.N#C[N-]C#N are within error of each other in activity coefficient: 0.793 ± 0.052 for the first, 0.816 ± 0.053 for the second.

Going from `CC#N` [acetonitrile] + CCCCCCCCCCCC[N+](C)(C)CCOc1ccccc1.O=S(=O)([N-]S(=O)(=O)C(F)(F)F)C(F)(F)F to `CCCC=O` [butanal] + CCCCCCCCCCCC[N+](C)(C)CCOc1ccccc1.O=S(=O)([N-]S(=O)(=O)C(F)(F)F)C(F)(F)F, the activity coefficient rises from 0.555 ± 0.04 to 0.876 ± 0.056.

`C1CCCCCC1` [cycloheptane] + CCCCCCCCCCCC[N+](C)(C)CCOc1ccccc1.N#C[N-]C#N and `C1CCCCCCC1` [cyclooctane] + CCCCCCCCCCCC[N+](C)(C)CCOc1ccccc1.N#C[N-]C#N are within error of each other in activity coefficient: 3.37 ± 0.23 for the first, 3.76 ± 0.26 for the second.

Compared with `C1CCCCCC1` [cycloheptane] + CCCCCCCCCCCC[N+](C)(C)CCOc1ccccc1.O=S(=O)([N-]S(=O)(=O)C(F)(F)F)C(F)(F)F, `C1CCCCC1` [cyclohexane] + CCCCCCCCCCCC[N+](C)(C)CCOc1ccccc1.N#C[N-]C#N is higher in activity coefficient: 2.43 ± 0.17 for the first, 3.22 ± 0.22 for the second.

`C1CCCCC1` [cyclohexane] + CCCCCCCCCCCC[N+](C)(C)CCOc1ccccc1.O=S(=O)([N-]S(=O)(=O)C(F)(F)F)C(F)(F)F and `C1=CCCCC1` [cyclohexene] + CCCCCCCCCCCC[N+](C)(C)CCOc1ccccc1.N#C[N-]C#N are within error of each other in activity coefficient: 2.16 ± 0.15 for the first, 2.29 ± 0.16 for the second.

`C1=CCCCC1` [cyclohexene] + CCCCCCCCCCCC[N+](C)(C)CCOc1ccccc1.O=S(=O)([N-]S(=O)(=O)C(F)(F)F)C(F)(F)F gave an activity coefficient of 1.69 ± 0.11.

Same assay, conditions: 378.15 K; 101.33 kPa; Liquid; Chromatography; x1 = 0

`CCC(C)(C)OC` [2-methoxy-2-methylbutane] + CCCCCCCCCCCC[N+](C)(C)CCOc1ccccc1.N#C[N-]C#N and `COC(C)(C)C` [2-methoxy-2-methylpropane] + CCCCCCCCCCCC[N+](C)(C)CCOc1ccccc1.N#C[N-]C#N are within error of each other in activity coefficient: 2.81 ± 0.19 for the first, 2.53 ± 0.17 for the second.

`CC(C)CO` [2-methyl-1-propanol] + CCCCCCCCCCCC[N+](C)(C)CCOc1ccccc1.N#C[N-]C#N and `CCC(C)O` (configuration not stated) [butan-2-ol] + CCCCCCCCCCCC[N+](C)(C)CCOc1ccccc1.N#C[N-]C#N are within error of each other in activity coefficient: 0.494 ± 0.038 for the first, 0.564 ± 0.041 for the second.

First: CC(C)(C)O [2-methylpropan-2-ol] + CCCCCCCCCCCC[N+](C)(C)CCOc1ccccc1.N#C[N-]C#N
Second: CC(C)=O [acetone] + CCCCCCCCCCCC[N+](C)(C)CCOc1ccccc1.N#C[N-]C#N
The activity coefficient of the first is lower: 0.613 ± 0.043 for the first, 0.834 ± 0.054 for the second.

Compared with `CCC(C)CC` [3-methylpentane] + CCCCCCCCCCCC[N+](C)(C)CCOc1ccccc1.N#C[N-]C#N, `CCCCO` [butan-1-ol] + CCCCCCCCCCCC[N+](C)(C)CCOc1ccccc1.N#C[N-]C#N is lower in activity coefficient: 5.5 ± 0.37 for the first, 0.514 ± 0.038 for the second.

Compared with `C=C(C)c1ccccc1` [(1-methylethenyl)benzene] + CCCCCCCCCCCC[N+](C)(C)CCOc1ccccc1.N#C[N-]C#N, `c1ccccc1` [benzene] + CCCCCCCCCCCC[N+](C)(C)CCOc1ccccc1.N#C[N-]C#N is lower in activity coefficient: 1.46 ± 0.1 for the first, 1.01 ± 0.06 for the second.

`CC#N` [acetonitrile] + CCCCCCCCCCCC[N+](C)(C)CCOc1ccccc1.N#C[N-]C#N and `CCCC=O` [butanal] + CCCCCCCCCCCC[N+](C)(C)CCOc1ccccc1.N#C[N-]C#N are within error of each other in activity coefficient: 0.801 ± 0.052 for the first, 0.828 ± 0.053 for the second.

`C1CCCCCC1` [cycloheptane] + CCCCCCCCCCCC[N+](C)(C)CCOc1ccccc1.N#C[N-]C#N and `C1CCCCCCC1` [cyclooctane] + CCCCCCCCCCCC[N+](C)(C)CCOc1ccccc1.N#C[N-]C#N are within error of each other in activity coefficient: 3.39 ± 0.23 for the first, 3.79 ± 0.26 for the second.

Compared with `C1CCCCC1` [cyclohexane] + CCCCCCCCCCCC[N+](C)(C)CCOc1ccccc1.N#C[N-]C#N, `C1=CCCCC1` [cyclohexene] + CCCCCCCCCCCC[N+](C)(C)CCOc1ccccc1.N#C[N-]C#N is lower in activity coefficient: 3.24 ± 0.22 for the first, 2.31 ± 0.16 for the second.
